Source: PMC6084503, “Pyrrolo[3,2-c]pyridine derivatives with potential inhibitory effect against FMS kinase: in vitro biological studies” (Journal of Enzyme Inhibition and Medicinal Chemistry, 2018)

Experiments:
[1] = biological target: T1, FMS kinase (Homo sapiens, UniProt P07333); assay: Kinase HotSpot cell-free enzyme assay, FMS kinase; assay type: biochemical; settings: for IC50: 10-dose duplicate assay, mean ± SEM, starting with 81 µM, threefold serial dilution, read-out: IC50 against FMS kinase
T1 construct: purchased Reaction Biology Corp
Protocol: Reaction Biology Corp. Kinase HotSpot^SM service [http://www.reactionbiology.com] was utilised for screening of the target compounds as per the protocol reported in the literature.
Compounds 1a–r were tested in a 10-dose testing mode starting with 81 µM, threefold serial dilutions, against FMS kinase in a cell-free enzyme assay. […] This can be due to occupancy of a hydrophobic pocket with that additional benzoyl moiety and/or formation of additional hydrogen bond by the carbonyl oxygen.

T1 sequence (P07333 20-972): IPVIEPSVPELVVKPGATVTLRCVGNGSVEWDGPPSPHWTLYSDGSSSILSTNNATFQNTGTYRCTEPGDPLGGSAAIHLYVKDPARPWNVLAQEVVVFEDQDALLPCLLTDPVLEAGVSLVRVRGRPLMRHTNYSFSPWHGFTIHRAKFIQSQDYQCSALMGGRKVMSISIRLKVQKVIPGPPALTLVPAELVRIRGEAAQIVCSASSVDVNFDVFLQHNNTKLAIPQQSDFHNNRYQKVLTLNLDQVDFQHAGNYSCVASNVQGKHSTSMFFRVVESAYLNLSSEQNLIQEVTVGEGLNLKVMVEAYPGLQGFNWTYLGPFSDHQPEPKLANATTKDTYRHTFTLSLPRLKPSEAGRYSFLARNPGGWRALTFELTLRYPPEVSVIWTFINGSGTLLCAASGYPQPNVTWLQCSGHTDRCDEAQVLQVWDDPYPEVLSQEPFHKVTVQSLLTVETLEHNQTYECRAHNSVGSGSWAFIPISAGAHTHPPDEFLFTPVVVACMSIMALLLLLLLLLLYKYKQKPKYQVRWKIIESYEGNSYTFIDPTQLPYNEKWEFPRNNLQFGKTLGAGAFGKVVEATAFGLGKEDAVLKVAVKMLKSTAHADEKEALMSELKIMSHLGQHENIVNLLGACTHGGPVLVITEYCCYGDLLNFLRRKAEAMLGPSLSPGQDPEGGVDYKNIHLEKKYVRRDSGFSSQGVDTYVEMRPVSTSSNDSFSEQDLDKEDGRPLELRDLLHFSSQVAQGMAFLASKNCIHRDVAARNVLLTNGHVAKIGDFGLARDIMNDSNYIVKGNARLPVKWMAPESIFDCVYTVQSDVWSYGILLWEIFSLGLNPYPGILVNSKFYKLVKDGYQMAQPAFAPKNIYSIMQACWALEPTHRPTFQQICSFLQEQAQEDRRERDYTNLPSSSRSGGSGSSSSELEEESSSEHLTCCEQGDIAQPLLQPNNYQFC

Row | SMILES | IC50 [1] [µM] | melting point | Potency against FMS kinase relative to KIST101029 ([1]; ratio of IC50 values, more potent than lead compound KIST101029) [times]
1 | O=C(Nc1ccc(-n2ccc3c(NC(=O)c4ccccc4)nccc32)cc1)c1cccc(C(F)(F)F)c1 [Compound 1h] | 10.8 ± 0.6 |  | 
2 | O=C(Nc1cccc(-n2ccc3c(NC(=O)c4ccccc4)nccc32)c1)c1cccc(C(F)(F)F)c1 [Compound 1i] | > 81 | 142 to 144 °C | 
3 | O=C(Nc1ccc(-n2ccc3c(NC(=O)c4ccccc4)nccc32)cc1)c1ccc(Cl)c(Cl)c1 [Compound 1f] | > 81 |  | 
4 | O=C(Nc1cccc(-n2ccc3c(NC(=O)c4ccccc4)nccc32)c1)c1ccc(Cl)c(Cl)c1 [Compound 1g] | 1.27 ± 0.07 |  | 
5 | O=C(Nc1ccc(-n2ccc3c(NC(=O)c4ccccc4)nccc32)cc1)c1ccc(N2CCOCC2)c(C(F)(F)F)c1 [Compound 1j] | 33.1 ± 0.45 |  | 

Now from value to compound:

Row | IC50 [1] [µM] | melting point | Potency against FMS kinase relative to KIST101029 ([1]; ratio of IC50 values, more potent than lead compound KIST101029) [times] | SMILES
6 | > 81 |  |  | Nc1nccc2c1ccn2-c1ccc(NC(=O)c2ccc(Cl)c(Cl)c2)cc1 [Compound 1n]
7 | 0.39 ± 0.02 |  |  | O=C(Nc1ccc(-n2ccc3c(NC(=O)c4ccccc4)nccc32)cc1)Nc1ccc(Cl)c(C(F)(F)F)c1 [Compound 1c]
8 | 40.7 ± 2.4 | > 280 °C |  | Nc1nccc2c1ccn2-c1cccc(NC(=O)c2ccc(Cl)c(Cl)c2)c1 [Compound 1o]
9 | 0.1 ± 0.03 | 253 to 256 °C (dec.) |  | Nc1nccc2c1ccn2-c1ccc(NC(=O)c2ccc(N3CCOCC3)c(C(F)(F)F)c2)cc1 [Compound 1p]
10 | 3.2 ± 0.07 | > 280 °C |  | Nc1nccc2c1ccn2-c1ccc(NC(=O)Nc2ccc(Cl)c(C(F)(F)F)c2)cc1 [Compound 1l]
11 | 2.47 ± 0.03 | 143 to 145 °C |  | O=C(Nc1cccc(-n2ccc3c(NC(=O)c4ccccc4)nccc32)c1)Nc1ccc(Cl)c(C(F)(F)F)c1 [Compound 1d]
12 | 1.45 ± 0.03 |  |  | Nc1nccc2c1ccn2-c1ccc(NC(=O)Nc2cc(C(F)(F)F)cc(C(F)(F)F)c2)cc1 [Compound 1m]
13 | 0.06 ± 0.01 | > 280 °C | 1.6 | O=C(Nc1ccc(-n2ccc3c(NC(=O)c4ccccc4)nccc32)cc1)Nc1cc(C(F)(F)F)cc(C(F)(F)F)c1 [Compound 1e]
